# According to article PMC4322223, “Biochemical and structural characterization of a thermostable β-glucosidase from Halothermothrix orenii for galacto-oligosaccharide synthesis” (Applied Microbiology and Biotechnology, 2014):
# Target: T1, HoBGLA (Halothermothrix orenii, UniProt B8CYA8)
# T1 construct: gene Hore_15280; full length, 451 residues, GH1; pNIC28-Bsa4 N-terminal His6-TEV tag cut off with TEV protease; expressed in E. coli BL21(DE3); 53 kDa
# Assay: X-ray crystal structure, […] Å, crystal soaked with cellobionolactam
# Format: binding
# Settings: pH 5.5; subsite −1, non-covalent, glucose left after cleavage of cellobionolactam
# T1 sequence (B8CYA8 entry or part of it): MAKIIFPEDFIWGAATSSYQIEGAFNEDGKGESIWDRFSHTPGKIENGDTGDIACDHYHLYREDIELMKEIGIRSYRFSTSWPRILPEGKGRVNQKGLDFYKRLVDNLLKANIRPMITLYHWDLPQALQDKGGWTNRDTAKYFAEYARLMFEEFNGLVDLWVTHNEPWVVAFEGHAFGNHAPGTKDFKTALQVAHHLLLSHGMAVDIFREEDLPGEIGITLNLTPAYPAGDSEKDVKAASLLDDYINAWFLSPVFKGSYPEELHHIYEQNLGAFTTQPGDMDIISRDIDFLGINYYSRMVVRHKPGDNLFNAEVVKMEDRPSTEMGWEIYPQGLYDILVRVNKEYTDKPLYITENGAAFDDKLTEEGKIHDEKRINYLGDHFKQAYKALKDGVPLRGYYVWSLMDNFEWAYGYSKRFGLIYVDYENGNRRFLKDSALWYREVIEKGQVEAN
compound,measurement,value
OC[C@H]1O[C@@H](O)[C@H](O)[C@@H](O)[C@@H]1O [D-glucose],"X-ray crystal structure, 1.80 Å, crystal soaked with cellobionolactam","The crystal structure of HoBGLA in complex with glucose, representing the post-hydrolysis state"
